We go through nine compounds from patent US20250234861A1, “LACTONES FOR ENHANCING THE ACTIVITY OF ANTIMICROBIAL AGENTS” (BASF SE, priority 2021, published 2025).

Holding throughout (format): cell-based
The test system of assay [1] is bacterial mix consisting of Escherichia coli DSM 1576, Alcaligenes faecalis DSM 13644, Pseudomonas aeruginosa ATCC 15442, Staphylococcus aureus ATCC 6538 …. Description: Example 2.1: preservative activity in a manual dishwashing composition (MDW, pH 7.1) using 2-phenoxyethanol (PE), bacterial challenge. The note with it: for d7 CFU: day 7; for d14 CFU: day 14; for d21 CFU: day 21. On the procedure:
(§1) A manual dish wash detergent (MWD) of pH 7.1 containing the following components was used:
The samples were contaminated with a bacterial mix consisting of: • Escherichia coli DSM 1576 • Alcaligenes faecalis DSM 13644 • Pseudomonas aeruginosa ATCC 15442 • Staphylococcus aureus ATCC 6538 • Burkholderia cepacia DSM 7288 • Pseudomonas putida DSM 12735
The samples were inoculated with the bacterial mix at day 0 and 7 to obtain 10E+06 to 10E+07 CFU/ml inoculation in the test sample and stored at 25° C. for 21 days. CFU was determined before re-inoculation at day 7 and on days 14 and 21.
Any CFU value at day 7 (d7), day 14 (d14) or day 21 (d21) obtained with a sample according to the invention containing 2-phenoxyethanol and lactone (MDW+1.0% PE+x % Lactone) lower than the respective value of the “comparative 2” example (MDW+1.0% by weight of 2-Phenoxyethanol) indicates a better performance.

In assay [2] the test system is fungal mix consisting of Aspergillus brasiliensis DSM 1988, Rhodotorula mucilaginosa DSM 13621, Yarrowialipolytica DSM 8218. Description: Example 1.3: preservative activity in a manual dishwashing composition (MDW, pH 7.1) using 2-phenoxyethanol (PE), fungal challenge. Conditions: for d7 CFU: day 7; for d14 CFU: day 14; for d21 CFU: day 21. On the procedure: as §1
(§2) The samples were contaminated with a fungal mix consisting of: • Aspergillus brasiliensis DSM 1988 • Rhodotorula mucilaginosa DSM 13621 • Yarrowialipolytica DSM 8218
(§3) The samples were inoculated with the fungal mix at day 0 and 7 to obtain 1-3×10E+05 CFU/ml inoculation in the test sample consisting of the above-defined dish wash detergent MDW and stored at 25° C. for 21 days. CFU was determined before re-inoculation at day 7, and on days 14 and 21.
(§4) Any CFU value at d7, d14 or d21 obtained with a MDW sample of the invention containing 2-phenoxyethanol and lactone (MDW+1.0% PE+x % of Lactone) lower than the respective value of the “comparative 2” example (MDW+1.0% by weight of 2-Phenoxyethanol) indicates a better performance of the inventive combination of 2-phenoxyethanol with the lactone.

Assay [3] has the same test system. Description: Example 1.2: preservative activity in a manual dishwashing composition (MDW, pH 7.1) using 2-phenoxyethanol (PE), fungal challenge. Conditions: for d7 CFU: day 7; for d14 CFU: day 14; for d21 CFU: day 21. The procedure:
as §1, §2, §3, §4

For assay [4], the system named is bacterial mix consisting of Escherichia coli DSM 1576, Alcaligenes faecalis DSM 13644, Pseudomonas aeruginosa ATCC 15442, Staphylococcus aureus ATCC 6538 …. Put plainly: Example 2.3: preservative activity of a basic composition (pH 7, 10% PG) using 1,2-benzisothiazol-3(2H)-one (BIT), bacterial challenge. Conditions: day 7. On the procedure:
An aqueous composition of pH 7 comprising 10% by weight of propyleneglycol (PG) as organic solvent, 0.004% by weight of 1,2-benzisothiazol-3(2H)-one (BIT) as antimicrobial and the lactone listed in the below table was tested for its preserving activity against bacterial contamination (the weight percentages relate to the total weight of the composition). For this purpose, the samples were contaminated with a bacterial mix consisting of: • Escherichia coli DSM 1576 • Alcaligenes faecalis DSM 13644 • Pseudomonas aeruginosa ATCC 15442 • Staphylococcus aureus ATCC 6538 • Burkholderia cepacia DSM 7288 • Pseudomonas putida DSM 12735
The samples were inoculated with the bacterial mix at day 0 to obtain 10E+06 to 10E+07 CFU/ml inoculation in the test sample and stored at 25° C. for 7 days.
(§5) CFU was determined at day 7.
Any CFU value at day 7 (d7) obtained with a sample according to the invention containing BIT and lactone (10% PG+0.004% BIT+x % of Lactone) that is lower than the respective value of the “comparative 2” example (10% PG+0.004% BIT) indicates a better performance.

The test system of assay [5] is Pseudomonas aeruginosa ATCC 15442. Description: Example 2.4: preservative activity of a basic composition (pH 5, 10% PG) using sodium benzoate, bacterial challenge. The note with it: day 7. The procedure: An aqueous composition of pH 5 comprising 10% by weight of propyleneglycol (PG) as organic solvent, sodium benzoate as antimicrobial and 0.18% by weight of γ-valerolactone was tested for its preserving activity against bacterial contamination (the weight percentages relate to the total weight of the composition). For this purpose, the samples were contaminated with a bacterial suspension of Pseudomonas aeruginosa ATCC 15442.
The samples were inoculated with the bacterial suspension at day 0 to obtain 6.1×10E+07 CFU/ml inoculation in the test sample and stored at 25° C. for 7 days.
as §5
Any CFU value at day 7 (d7) obtained with a sample according to the invention containing sodium benzoate and lactone (10% PG+x % sodium benzoate+0.18% of Lactone) lower than the respective value of the “comparative 2” example (10% PG+0.5% sodium benzoate) or “comparative 3” example (10% PG+0.85% sodium benzoate) indicates a better performance.

Where [6] appears, read: MDW + 1.0% PE + 1% of lactone, bacterial mix.
The mark [7] stands for this setting: MDW pH 7.1 + 1.0% of the substance alone (comparative), fungal mix inoculated day 0 and 7, 25° C.
[8] abbreviates: MDW pH 7.1 + 1.0% of the substance alone (comparative), fungal mix.
Where [9] appears, read: MDW pH 7.1 + 1.0% of the substance alone (comparative), bacterial mix inoculated day 0 and 7, 25° C.
The mark [10] stands for this setting: MDW pH 7.1 + 1.0% of the substance alone (comparative), bacterial mix.
[11] abbreviates: MDW + 1.0% PE + 1% of lactone, fungal mix.
[12] abbreviates: MDW + 1.0% PE + 2% of lactone, fungal mix.

The structures appear in SMILES notation. Where only a bound is given, the exact number is not on record here.

As for `CCCCCC1CCC(=O)O1` (centres unmarked) [y-Nonalactone], in assay [1] (setting [6]), the “d7 CFU” value is below 10 CFU, the “d14 CFU” value was below 10 CFU and the “d21 CFU” value is given as below 10 CFU.

Turning to `OCCOc1ccccc1` [Phenoxyethanol (PE)], the results for the “d7 CFU” value in assay [2] (setting [7]), in assay [1] (setting [9]) and in assay [3] (setting [7]) were >100,000 CFU, 625 CFU and 34,500 CFU, respectively. Further, the “d14 CFU” value in assay [2] (setting [8]) is listed as >100,000 CFU; in assay [1] (setting [10]), >100,000 CFU; in assay [3] (setting [7]) it was 16,500 CFU. Besides, the “d21 CFU” value in assay [2] (setting [8]) is on record as >100,000 CFU; in assay [1] (setting [10]), >100,000 CFU; in assay [3] (setting [7]), 3,800 CFU.

`O=c1[nH]sc2ccccc12` [BIT, 1,2-benzisothiazol-3(2H)-one, reference compound]: the “d7 [CFU/ml]” value in assay [4] (10% PG, pH 7 + 0.004% BIT alone (Comparative 2)) is listed as >100,000 CFU/ml.

`CCCCCCC1CCC(=O)O1` (centres unmarked) [y-Decalactone]: the “d7 CFU” value in assay [1] (setting [6]) is reported as below 10 CFU; in assay [1] (setting [9]), >100,000 CFU. The “d14 CFU” value is recorded as below 10 CFU in assay [1] (setting [6]) and >100,000 CFU in assay [1] (setting [10]). Besides, the “d21 CFU” value in assay [1] (setting [6]) is below 10 CFU; in assay [1] (setting [10]), >100,000 CFU.

For the compound `CCCCCC1CCC(=O)O1` (centres unmarked) [γ-nonalactone], in assay [2] (setting [11]), the “d7 CFU” value is 4,100 CFU, the “d14 CFU” value is listed as 5,000 CFU and the “d21 CFU” value is given as 150 CFU. Further, the “d7 CFU” value in assay [2] (setting [7]) is >100,000 CFU. Besides, in assay [2] (setting [8]), the “d14 CFU” value is reported as >100,000 CFU and the “d21 CFU” value is >100,000 CFU.

With `CCCCCC1CCC(=O)O1` (centres unmarked) [Y-Nonalactone], the “d7 CFU” value in assay [1] (setting [9]) is recorded as 8,400 CFU. In addition, in assay [1] (setting [10]), the “d14 CFU” value was >100,000 CFU and the “d21 CFU” value is reported as >100,000 CFU.

In the case of `CC1CCC(=O)O1` (centres unmarked) [γ-valerolactone], the “d7 [CFU/ml]” value was 145 CFU/ml in assay [4] (10% PG + 0.004% BIT + 0.04% of lactone); >100,000 CFU/ml in assay [4] (10% PG, pH 7 + 0.04% lactone alone (Comparative 1), 25° C.); 990 CFU/ml in assay [5] (10% PG + 0.5% sodium benzoate + 0.18% of lactone); 890 CFU/ml in assay [5] (10% PG + 0.85% sodium benzoate + 0.18% of lactone); >100,000 CFU/ml in assay [5] (10% PG, pH 5 + 0.18% lactone alone (Comparative 1), P. aeruginosa, 25° C.). Moreover, the “d7 CFU” value is 3,500 CFU in assay [3] (setting [11]), 85 CFU in assay [3] (setting [12]) and 12,000 CFU in assay [3] (setting [7]). Further, the figures for the “d14 CFU” value in assay [3] (setting [11]), in assay [3] (setting [12]) and in assay [3] (setting [7]) were 3,600 CFU, 95 CFU and 24,500 CFU, respectively. In addition, the “d21 CFU” value is recorded as 385 CFU in assay [3] (setting [11]), below 10 CFU in assay [3] (setting [12]) and 2,500 CFU in assay [3] (setting [7]).

Consider `O=C([O-])c1ccccc1.[Na+]` [sodium benzoate, reference compound], for which the “d7 [CFU/ml]” value in assay [5] (10% PG, pH 5 + 0.5% sodium benzoate alone (Comparative 2)) was >100,000 CFU/ml; in assay [5] (10% PG, pH 5 + 0.85% sodium benzoate alone (Comparative 3)), >100,000 CFU/ml.

For `CCCCCCC1CCC(=O)O1` (centres unmarked) [γ-Decalactone], in assay [2] (setting [11]), the “d7 CFU” value was 24,500 CFU, the “d14 CFU” value is on record as 13,000 CFU and the “d21 CFU” value is on record as 1200 CFU. Also, the “d7 CFU” value in assay [2] (setting [7]) was >100,000 CFU. Moreover, in assay [2] (setting [8]), the “d14 CFU” value was >100,000 CFU and the “d21 CFU” value is reported as >100,000 CFU.
